Measured values reported in patent publication US20240059661A1, “SOLID STATE FORMS OF 2-(3,5-DICHLOROPHENYL)-1,3-BENZOXAZOLE-6-CARBOXYLIC ACID OR ITS PHARMACEUTICALLY ACCEPTABLE SALTS AND POLYMORPHS THEREOF” (CIPLA LIMITED, priority 2021, published 2024).

Legend:
[1] = Forced degradation study (solid state stability) of Tafamidis Form C1; assay type: physicochemical
Description: Forced degradation is synonymous with stress testing and purposeful degradation. Purposeful degradation can be a useful tool to predict the stability of a drug substance or a drug product with effects on purity, potency, and safety. It is imperative to know the impurity profile and behavior of a drug substance under various stress conditions. Forced degradation also plays an important role in the development of analytical methods, setting specifications, and design of formulations under the quality-by-design (QbD) paradigm. The nature of the stress testing depends on the individual drug substance and the type of drug product (e.g., solid oral dosage, lyophilized powders, and liquid formulations) involved.
A forced degradation study was performed to generate potential degradation products and assess stability liabilities. Tafamidis form C1 prepared as per the present disclosure was subjected to forced degradation study with below specified conditions. […] The samples were analysed at pre-determined time intervals for PXRD, HPLC purity and water content. […] The forced degradation results for Tafamidis Form C1 are tabulated below in Table 1.

[2] = Indicative stability of Tafamidis Form C1 on storage up to 6 months; assay type: physicochemical
Experimental: The stability of Tafamidis form C1 prepared as per the present disclosure was studied by storing the samples at 2-8° C., 25° C./60% RH; and 40° C./75% RH storage conditions upto 6 months. The samples were analysed for PXRD, HPLC purity and water content at pre-determined time intervals of 1M, 2M, 3M and 6M.
The stability data collected after 6 months of storage are tabulated below in Table 2.

O=C(O)c1ccc2nc(-c3cc(Cl)cc(Cl)c3)oc2c1 [Form C1, 2-(3,5-Dichlorophenyl)-1,3-benzoxazole-6-carboxylic acid]
Description ([1]; 0 D, Initial): off-white powder
HPLC Purity ([1]; 0 D, Initial): 99.98
PXRD ([1]; 0 D, Initial): Form C1
Water content KF ([1]; 0 D, Initial): 0.57%
Description ([1]; 5 D, 60°C/80% RH): off-white powder
HPLC Purity ([1]; 5 D, 60°C/80% RH): 99.97
Water content KF ([1]; 5 D, 60°C/80% RH): 0.62%
Description ([1]; 6 Hours (DHS), 105° C.): off-white powder
HPLC Purity ([1]; 6 Hours (DHS), 105° C.): 99.98
Description ([1]; 6 Hours, 120° C.): off-white powder
HPLC Purity ([1]; 6 Hours, 120° C.): 99.99
Description ([1]; 7 D, 25° C./60% RH Closed cup): off-white powder
HPLC Purity ([1]; 7 D, 25° C./60% RH Closed cup): 99.98
Water content KF ([1]; 7 D, 25° C./60% RH Closed cup): 0.42%
Description ([1]; 7 D, 25° C./60% RH Open cup): off-white powder
HPLC Purity ([1]; 7 D, 25° C./60% RH Open cup): 99.98
Water content KF ([1]; 7 D, 25° C./60% RH Open cup): 0.48%
Description ([1]; 7 D, 40° C./75% RH Closed cup): off-white powder
HPLC Purity ([1]; 7 D, 40° C./75% RH Closed cup): 99.98
Water content KF ([1]; 7 D, 40° C./75% RH Closed cup): 0.45%
Description ([1]; 7 D, 40° C./75% RH Open cup): off-white powder
HPLC Purity ([1]; 7 D, 40° C./75% RH Open cup): 99.98
Water content KF ([1]; 7 D, 40° C./75% RH Open cup): 0.72%
Description ([1]; 10 TORR): off-white powder
HPLC Purity ([1]; 10 TORR): 99.99
degradation under stress conditions ([1]; any of the stress conditions): did not show any degradation
change with respect to PXRD, HPLC purity and water content ([1]; forced degradation, all conditions of Table 1): no significant change
Description ([2]; 0, Initial): Off-white colour
HPLC Purity ([2]; 0, Initial): 99.99
PXRD ([2]; 0, Initial): Form C1
Water content KF ([2]; 0, Initial): 0.34%
Description ([2]; 1 month, 2-8° C.): Off-white colour
HPLC Purity ([2]; 1 month, 2-8° C.): 99.98
Water content KF ([2]; 1 month, 2-8° C.): 0.88%
Description ([2]; 1 month, 25° C./60% RH): Off-white colour
HPLC Purity ([2]; 1 month, 25° C./60% RH): 99.98
Water content KF ([2]; 1 month, 25° C./60% RH): 0.85%
Description ([2]; 1 month, 40° C./75% RH): Off-white colour
HPLC Purity ([2]; 1 month, 40° C./75% RH): 99.99
Water content KF ([2]; 1 month, 40° C./75% RH): 0.8%
Description ([2]; 2 months, 2-8° C.): Off-white colour
HPLC Purity ([2]; 2 months, 2-8° C.): 99.98
Water content KF ([2]; 2 months, 2-8° C.): 0.63%
Description ([2]; 2 months, 25° C./60% RH): Off-white colour
HPLC Purity ([2]; 2 months, 25° C./60% RH): 99.98
Water content KF ([2]; 2 months, 25° C./60% RH): 0.68%
Description ([2]; 2 months, 40° C./75% RH): Off-white colour
HPLC Purity ([2]; 2 months, 40° C./75% RH): 99.98
Water content KF ([2]; 2 months, 40° C./75% RH): 0.78%
Description ([2]; 3 months, 2-8° C.): Off-white colour
HPLC Purity ([2]; 3 months, 2-8° C.): 99.98
Water content KF ([2]; 3 months, 2-8° C.): 1.02%
Description ([2]; 3 months, 25° C./60% RH): Off-white colour
HPLC Purity ([2]; 3 months, 25° C./60% RH): 99.98
Water content KF ([2]; 3 months, 25° C./60% RH): 0.92%
Description ([2]; 3 months, 40° C./75% RH): Off-white colour
HPLC Purity ([2]; 3 months, 40° C./75% RH): 99.98
Water content KF ([2]; 3 months, 40° C./75% RH): 0.85%
Description ([2]; 6 months, 2-8° C.): Off-white colour
HPLC Purity ([2]; 6 months, 2-8° C.): 99.98
Water content KF ([2]; 6 months, 2-8° C.): 0.79%
Description ([2]; 6 months, 25° C./60% RH): Off-white colour
HPLC Purity ([2]; 6 months, 25° C./60% RH): 99.98
Water content KF ([2]; 6 months, 25° C./60% RH): 0.61%
Description ([2]; 6 months, 40° C./75% RH): Off-white colour
HPLC Purity ([2]; 6 months, 40° C./75% RH): 99.98
Water content KF ([2]; 6 months, 40° C./75% RH): 0.65%
change with respect to PXRD, HPLC purity and water content ([2]; all the storage conditions (2-8° C., 25° C./60% RH, 40° C./75% RH) up to 6 months): no significant change
